Measured values as given in ChEMBL document CHEMBL3885881, “DrugMatrix”.

Species on record: Rattus norvegicus
Experiment: DrugMatrix - Regimen: Daily Repeat
Format: toxicity, organism-based, Sprague-Dawley
Design: regimen Daily Repeat, gender Male, age 6-8 weeks
Conditions: in vivo, po, route oral GAVAGE, vehicle 100 % WATER; for ABSOLUTE BASOPHIL / ABSOLUTE EOSINOPHIL / ABSOLUTE LYMPHOCYTE / ABSOLUTE MONOCYTE / ABSOLUTE SEGMENTED NEUTROPHIL / BASOPHIL / EOSINOPHIL / ERYTHROCYTE COUNT / HEMATOCRIT / HEMOGLOBIN / LEUKOCYTE COUNT / LYMPHOCYTE / MEAN CORPUSCULAR HEMOGLOBIN / MEAN CORPUSCULAR HEMOGLOBIN CONCENTRATION / MEAN CORPUSCULAR VOLUME / MONOCYTE / NEUTROPHIL / NUCLEATED RED BLOOD CELLS / PLATELET COUNT: tissue Blood; for ALANINE AMINOTRANSFERASE / ALBUMIN / ALKALINE PHOSPHATASE / ASPARTATE AMINOTRANSFERASE / BLOOD UREA NITROGEN / CARBON DIOXIDE / CHLORIDE / CHOLESTEROL / CREATINE PHOSPHOKINASE / CREATININE / GLUCOSE / LACTATE DEHYDROGENASE / LIPASE / PHOSPHORUS / POTASSIUM / SODIUM / TOTAL BILIRUBIN / TOTAL PROTEIN / URIC ACID: tissue Plasma
[1] = 1 mg/kg, 120 h, dose level Low, time 5 day
[2] = 10 mg/kg, 72 h, dose level High, time 3 day
[3] = 10 mg/kg, 120 h, dose level High, time 5 day

CC[C@H](C)[C@H]1O[C@]2(C=C[C@@H]1C)C[C@@H]1C[C@@H](C/C=C(\C)[C@@H](O[C@H]3C[C@H](OC)[C@@H](O[C@H]4C[C@H](OC)[C@@H](O)[C@H](C)O4)[C@H](C)O3)[C@@H](C)/C=C/C=C3\CO[C@@H]4[C@H](O)C(C)=C[C@@H](C(=O)O1)[C@]34O)O2.CO[C@H]1C[C@H](O[C@H]2[C@H](C)O[C@@H](O[C@@H]3/C(C)=C/C[C@@H]4C[C@@H](C[C@]5(C=C[C@H](C)[C@@H](C(C)C)O5)O4)OC(=O)[C@@H]4C=C(C)[C@@H](O)[C@H]5OC/C(=C\C=C\[C@@H]3C)[C@]54O)C[C@@H]2OC)O[C@@H](C)[C@@H]1O [ABAMECTIN]
ABSOLUTE BASOPHIL [1]: 0 CELLS/uL | ABSOLUTE EOSINOPHIL [1]: 144.67 CELLS/uL | ABSOLUTE LYMPHOCYTE [1]: 15431.33 CELLS/uL | ABSOLUTE MONOCYTE [1]: 370 CELLS/uL | ABSOLUTE SEGMENTED NEUTROPHIL [1]: 1387.33 CELLS/uL | BASOPHIL [1]: 0% | EOSINOPHIL [1]: 0.67% | ERYTHROCYTE COUNT [1]: 5.65 x10E6/uL | HEMATOCRIT [1]: 33.97% | HEMOGLOBIN [1]: 13.77 G/DL | LEUKOCYTE COUNT [1]: 17.33 x10E3/uL | LYMPHOCYTE [1]: 89.67% | MEAN CORPUSCULAR HEMOGLOBIN [1]: 24.4 pg | MEAN CORPUSCULAR HEMOGLOBIN CONCENTRATION [1]: 40.53 G/DL | MEAN CORPUSCULAR VOLUME [1]: 60.13 fL | MONOCYTE [1]: 2% | NEUTROPHIL [1]: 7.67% | NUCLEATED RED BLOOD CELLS [1]: 0 /100WBC | PLATELET COUNT [1]: 1317.33 x10E3/uL | ALANINE AMINOTRANSFERASE [1]: 48.67 u/L | ALBUMIN [1]: 4.2 G/DL | ALKALINE PHOSPHATASE [1]: 323.67 u/L | ASPARTATE AMINOTRANSFERASE [1]: 72 u/L | BLOOD UREA NITROGEN [1]: 14.67 mg/dL | CARBON DIOXIDE [1]: 25 mmol/L | CHLORIDE [1]: 102 MEQ/L | CHOLESTEROL [1]: 70.33 mg/dL | CREATINE PHOSPHOKINASE [1]: 216.33 u/L | CREATININE [1]: 0.13 mg/dL | GLUCOSE [1]: 162.33 mg/dL | LACTATE DEHYDROGENASE [1]: 87.67 u/L | LIPASE [1]: 9 u/L | PHOSPHORUS [1]: 11.33 mg/dL | POTASSIUM [1]: 6.2 MEQ/L | SODIUM [1]: 144.03 MEQ/L | TOTAL BILIRUBIN [1]: 0.17 mg/dL | TOTAL PROTEIN [1]: 5.87 G/DL | URIC ACID [1]: 1.5 mg/dL | ABSOLUTE BASOPHIL [2]: 0 CELLS/uL | ABSOLUTE EOSINOPHIL [2]: 36.33 CELLS/uL | ABSOLUTE LYMPHOCYTE [2]: 12016 CELLS/uL | ABSOLUTE MONOCYTE [2]: 120 CELLS/uL | ABSOLUTE SEGMENTED NEUTROPHIL [2]: 861 CELLS/uL | BASOPHIL [2]: 0% | EOSINOPHIL [2]: 0.33% | ERYTHROCYTE COUNT [2]: 5.75 x10E6/uL | HEMATOCRIT [2]: 35.6% | HEMOGLOBIN [2]: 13.9 G/DL | LEUKOCYTE COUNT [2]: 13.03 x10E3/uL | LYMPHOCYTE [2]: 92.33% | MEAN CORPUSCULAR HEMOGLOBIN [2]: 24.2 pg | MEAN CORPUSCULAR HEMOGLOBIN CONCENTRATION [2]: 39.07 G/DL | MEAN CORPUSCULAR VOLUME [2]: 61.93 fL | MONOCYTE [2]: 1% | NEUTROPHIL [2]: 6.33% | NUCLEATED RED BLOOD CELLS [2]: 0 /100WBC | PLATELET COUNT [2]: 1234 x10E3/uL | ALANINE AMINOTRANSFERASE [2]: 46.33 u/L | ALBUMIN [2]: 4.23 G/DL | ALKALINE PHOSPHATASE [2]: 426 u/L | ASPARTATE AMINOTRANSFERASE [2]: 78.33 u/L | BLOOD UREA NITROGEN [2]: 14.67 mg/dL | CARBON DIOXIDE [2]: 25 mmol/L | CHLORIDE [2]: 99.67 MEQ/L | CHOLESTEROL [2]: 64 mg/dL | CREATINE PHOSPHOKINASE [2]: 208.33 u/L | CREATININE [2]: 0.18 mg/dL | GLUCOSE [2]: 136.33 mg/dL | LACTATE DEHYDROGENASE [2]: 150.33 u/L | LIPASE [2]: 11 u/L | PHOSPHORUS [2]: 11.37 mg/dL | POTASSIUM [2]: 6.65 MEQ/L | SODIUM [2]: 143.17 MEQ/L | TOTAL BILIRUBIN [2]: 0.17 mg/dL | TOTAL PROTEIN [2]: 5.87 G/DL | URIC ACID [2]: 1.33 mg/dL | ABSOLUTE BASOPHIL [3]: 0 CELLS/uL | ABSOLUTE EOSINOPHIL [3]: 0 CELLS/uL | ABSOLUTE LYMPHOCYTE [3]: 9787 CELLS/uL | ABSOLUTE MONOCYTE [3]: 273.67 CELLS/uL | ABSOLUTE SEGMENTED NEUTROPHIL [3]: 1239.33 CELLS/uL | BASOPHIL [3]: 0% | EOSINOPHIL [3]: 0% | ERYTHROCYTE COUNT [3]: 6.35 x10E6/uL | HEMATOCRIT [3]: 39.13% | HEMOGLOBIN [3]: 15.47 G/DL | LEUKOCYTE COUNT [3]: 11.3 x10E3/uL | LYMPHOCYTE [3]: 85.33% | MEAN CORPUSCULAR HEMOGLOBIN [3]: 24.43 pg | MEAN CORPUSCULAR HEMOGLOBIN CONCENTRATION [3]: 39.53 G/DL | MEAN CORPUSCULAR VOLUME [3]: 61.9 fL | MONOCYTE [3]: 2.67% | NEUTROPHIL [3]: 12% | NUCLEATED RED BLOOD CELLS [3]: 0.33 /100WBC | PLATELET COUNT [3]: 1492.67 x10E3/uL | ALANINE AMINOTRANSFERASE [3]: 38 u/L | ALBUMIN [3]: 4.63 G/DL | ALKALINE PHOSPHATASE [3]: 309 u/L | ASPARTATE AMINOTRANSFERASE [3]: 72.33 u/L | BLOOD UREA NITROGEN [3]: 17 mg/dL | CARBON DIOXIDE [3]: 27.33 mmol/L | CHLORIDE [3]: 98.67 MEQ/L | CHOLESTEROL [3]: 79.33 mg/dL | CREATINE PHOSPHOKINASE [3]: 356.67 u/L | CREATININE [3]: 0.14 mg/dL | GLUCOSE [3]: 153.33 mg/dL | LACTATE DEHYDROGENASE [3]: 446.33 u/L | LIPASE [3]: 8.67 u/L | PHOSPHORUS [3]: 10.47 mg/dL | POTASSIUM [3]: 6.1 MEQ/L | SODIUM [3]: 143.9 MEQ/L | TOTAL BILIRUBIN [3]: 0.13 mg/dL | TOTAL PROTEIN [3]: 6.7 G/DL | URIC ACID [3]: 1.5 mg/dL
